Measured values from patent publication US20050074404A1, “Methods for avoiding renal injury” (Pfizer Inc., priority 2002, published 2005).

How the values were obtained:
[1] = Urinary albumin concentrations in rats; assay type: in vivo, rat; details: 100 mg/kg once per day
Procedure: (§1) Male Sprague Dawley rats (105-125 grams each) were purchased from Charles River (Kingston, N.Y.). […] Rats were dosed intramuscular, using a 25 gauge tuberculin syringe. The animals were housed individually prior to urine collection. For the urine collection, rats were transferred to individual metabolism cages. At all times throughout the study, the animals had free access to food and water. […] Rats were dosed once per day for the duration of 1, 4 or 9 days. Urine was collected after one dose, four doses and nine doses. Each collection period was for 24 hours. Urine was collected, chilled to approximately 4° C. and protected from light. Total urine volume was measured at the end of each collection period prior to retinol analysis. The urine was stored at −80° C. and in darkness to protect the components of the urine from oxidation and degration until analysis.

[2] = Urinary retinol concentrations in rats (HPLC); assay type: in vivo, rat; details: 100 mg/kg intramuscular once per day, 24 h urine
Procedure: A. Dosing of Mammals, Collection and Storage of Urine
as §1
B. Measurement of Retinol in Urine Samples
The acetonitrile, methanol, isopropanol and tetrahydrofuran (THF) were purchased from J. T. Baker (Phillipsburg, N.J.). The acetonitrile and methanol were HPLC grade and the isopropanol and THF were ACS reagent grade. The water in the mobile phase came from a Nanopure® water filtration system (Barnstead, Dubuque, Ind.). Retinol and retinol acetate standards were purchased from ICN Biomedicals (Costa Mesa, Calif.). The retinol palmitate was purchased from Sigma Chemicals (St. Louis, Mo.).
The HPLC instrumentation consisted of a Hewlett-Packard Model 1090 Series II system (Hewlett Packard Company, Palo Alto, Calif.) equipped with a tertiary gradient pump, diode array detector, and a cooled auto-sampler. Hewlett-Packard Chemstation™ software (Rev. 5.02) was used for data collection and analysis. Absorbance data for all retinols was collected at a wavelength of 340 nm. All separations were carried out on a 15 cm×2.0 mm, 5μ particle size, Prodigy ODS (2) HPLC column (Phenomenex, Torrance, Calif.). The column was equipped with an inlet filter, 0.5μ×1.5 mm (Phenomenex, Torrance, Calif.). […]

rat kidney [3] = assay: Histopathology of rat kidney (H & E); assay type: in vivo
Source text: (§2) The physiological events that characterize the onset of phospholipidosis are well known to those with skill in the art (see, for example, Girton (2002)). […] Following endocytosis, the aminoglycoside accumulates in lysosomes. The lysosomes eventually swell with excess lipid debris. When visualized using electron-microscopy, the accumulated lipid appear as phospholipid inclusions, or myelin figures, within the lysosomes (Kosek et al. (1974)) (see FIG. 1 and FIG. 2 below). The phospholipid inclusions may also be visualized by staining with Sudan black as described, for example, in Presnell and Schreibman (1997) (see FIG. 3 below). The damage to renal tissue from phospholipidosis may be visualized by histological examination using hematoxylin and eosin staining (H & E) of the renal tissue damaged through phospholipidosis. The damage that is evident includes tubular degeneration, vacuolation and eventually, in advanced stages of damage, necrosis of the renal proximal tubule (see FIG. 5 and FIG. 6 below).
as §1

rat proximal tubule = assay: Electron microscopy of rat proximal tubule; assay type: in vivo; details: four days of treatment with 100 mg/kg
Source text: as §2
Male Sprague Dawley rats (105-125 grams each) were purchased from Charles River (Kingston, N.Y.). […] Rats were dosed intramuscular, using a 25 gauge tuberculin syringe. The animals were housed individually prior to urine collection. […] Total urine volume was measured at the end of each collection period prior to retinol analysis. […]

rat kidney [4] = assay: Sudan black staining of rat kidney for phospholipids; assay type: in vivo
Source text: as §2, §1

For Gentamicin sulfate, which Urinary albumin concentration ([1]; Day 1, mean of eight rats) is on record?
The Urinary albumin concentration was 163 µg/mL.

And the Urinary albumin concentration ([1]; Day 4, mean of eight rats)?
The Urinary albumin concentration was 354 µg/mL.

What about the Urinary albumin concentration ([1]; Day 9, mean of eight rats) of the same substance?
The Urinary albumin concentration was 1184 µg/mL.

And the Urinary retinol concentration ([2]; Day 1, mean of eight rats)?
The Urinary retinol concentration was 123.57 nM.

What about the Urinary retinol concentration ([2]; Day 4, mean of eight rats) of the same substance?
Its Urinary retinol concentration is 131.08 nM.

And the Urinary retinol concentration ([2]; Day 9, mean of eight rats)?
Its Urinary retinol concentration is 2457.13 nM.

What about the “Histopathologic effects, onset” value (rat kidney [3]; 100 mg/kg once per day) of the same substance?
The value was “do not begin to appear until day four”.

What about the “Chronic Progressive Nephropathy, slight, number of animals” value (rat kidney [3]; 100 mg/kg, Day 1, of 8 rats) of the same substance?
The value was 1.

And the “Hyaline droplets, slight, number of animals” value (“Hyaline droplets, slight” for short) (rat kidney [3]; 100 mg/kg, Day 1, of 8 rats)?
Its value is 3.

What about the “No significant findings, number of animals” value (rat kidney [3]; 100 mg/kg, Day 1, of 8 rats) of the same substance?
Its value is 4.

And the “Chronic Progressive Nephropathy, slight, number of animals” value (rat kidney [3]; 100 mg/kg, Day 4, of 8 rats)?
The value was 2.

And the “Hyaline droplets, mild, number of animals” value (rat kidney [3]; 100 mg/kg, Day 4, of 8 rats)?
Its value is 1.

What about the “Hyaline droplets, slight” value (rat kidney [3]; 100 mg/kg, Day 4, of 8 rats) of the same substance?
Its value is 3.

And the “Tubular degeneration (1), mild, number of animals” value (rat kidney [3]; 100 mg/kg, Day 4, of 8 rats)?
The value was 2.

And the “Tubular degeneration (1), slight, number of animals” value (rat kidney [3]; 100 mg/kg, Day 4, of 8 rats)?
The value was 6.

What about the “Tubular vacuolation, mild, number of animals” value (rat kidney [3]; 100 mg/kg, Day 4, of 8 rats) of the same substance?
The value was 3.

What about the “Tubular vacuolation, slight, number of animals” value (rat kidney [3]; 100 mg/kg, Day 4, of 8 rats) of the same substance?
The value was 3.

And the “Hyaline droplets, mild, number of animals” value (rat kidney [3]; 100 mg/kg, Day 9, of 8 rats)?
Its value is 4.

And the “Hyaline droplets, slight” value (rat kidney [3]; 100 mg/kg, Day 9, of 8 rats)?
Its value is 1.

What about the “Tubular degeneration/necrosis/regeneration (3), marked, number of animals” value (rat kidney [3]; 100 mg/kg, Day 9, of 8 rats) of the same substance?
The value was 6.

What about the “Tubular degeneration/necrosis/regeneration (3), severe, number of animals” value (rat kidney [3]; 100 mg/kg, Day 9, of 8 rats) of the same substance?
The value was 2.

And the “Tubular vacuolation, mild, number of animals” value (rat kidney [3]; 100 mg/kg, Day 9, of 8 rats)?
Its value is 2.

What about the “Tubular vacuolation, moderate, number of animals” value (rat kidney [3]; 100 mg/kg, Day 9, of 8 rats) of the same substance?
The value was 4.

What about the “Tubular vacuolation, slight, number of animals” value (rat kidney [3]; 100 mg/kg, Day 9, of 8 rats) of the same substance?
The value was 1.

And the “Rat kidney tissue histology (FIG. 5)” value (rat kidney [3]; four days of treatment with 100 mg/kg)?
Its value is “early lesions formation”.

And the “Rat kidney tissue histology (FIG. 6)” value (rat kidney [3]; nine days of treatment with 100 mg/kg)?
Its value is “extensive kidney tissue damage”.

What about the “Electron-micrograph finding in rat proximal tubule (FIG. 1)” value (rat proximal tubule) of the same substance?
The value was “phospholipid inclusions or myelin figures”.

What about the “Significant Sudan black staining, onset” value (rat kidney [4]; 100 mg/kg once per day) of the same substance?
The value was “not observed until day four”.

What about the “Sudan black staining negative, number of animals” value (rat kidney [4]; 100 mg/kg, Day 1, of 8 rats) of the same substance?
The value was 3.

And the “Sudan black staining slight, number of animals” value (rat kidney [4]; 100 mg/kg, Day 1, of 8 rats)?
Its value is 5.

What about the “Sudan black staining mild, number of animals” value (rat kidney [4]; 100 mg/kg, Day 4, of 8 rats) of the same substance?
The value was 1.

What about the “Sudan black staining mild-moderate, number of animals” value (rat kidney [4]; 100 mg/kg, Day 4, of 8 rats) of the same substance?
The value was 2.

What about the “Sudan black staining moderate, number of animals” value (rat kidney [4]; 100 mg/kg, Day 4, of 8 rats) of the same substance?
The value was 2.

And the “Sudan black staining moderate-marked, number of animals” value (rat kidney [4]; 100 mg/kg, Day 4, of 8 rats)?
The value was 3.

And the “Sudan black staining marked, number of animals” value (rat kidney [4]; 100 mg/kg, Day 9, of 8 rats)?
Its value is 1.

And the “Sudan black staining mild, number of animals” value (rat kidney [4]; 100 mg/kg, Day 9, of 8 rats)?
The value was 1.

And the “Sudan black staining mild-moderate, number of animals” value (rat kidney [4]; 100 mg/kg, Day 9, of 8 rats)?
Its value is 1.

What about the “Sudan black staining moderate, number of animals” value (rat kidney [4]; 100 mg/kg, Day 9, of 8 rats) of the same substance?
Its value is 2.

And the “Sudan black staining moderate-marked, number of animals” value (rat kidney [4]; 100 mg/kg, Day 9, of 8 rats)?
The value was 3.

And the Sudan black staining (rat kidney [4]; after a single dose (100 mg/kg))?
Its Sudan black staining is “slight staining”.
